Test results as given in patent publication US20250382344A1, “Soluble GLP1/GIP/NPY2 Receptor Triple Agonists” (Boehringer Ingelheim International GmH, priority 2024, published 2025).
Like-named read-outs stand apart in the source and are kept apart here.

Columns and labels:
hGIPR = target: T1, hGIPR (Homo sapiens, UniProt P48546); experiment: hGIPR CreLuc assay in 0.5% and 100% plasma (CHO CRE-luciferase reporter cells); type: cell-based; conditions: 0.5% human plasma, read-out: hGIPR 0.5% hP
T1 construct: expressed in transfected cells; host or cells: CHO CRE-luciferase reporter cells
T1 sequence (P48546 22-466): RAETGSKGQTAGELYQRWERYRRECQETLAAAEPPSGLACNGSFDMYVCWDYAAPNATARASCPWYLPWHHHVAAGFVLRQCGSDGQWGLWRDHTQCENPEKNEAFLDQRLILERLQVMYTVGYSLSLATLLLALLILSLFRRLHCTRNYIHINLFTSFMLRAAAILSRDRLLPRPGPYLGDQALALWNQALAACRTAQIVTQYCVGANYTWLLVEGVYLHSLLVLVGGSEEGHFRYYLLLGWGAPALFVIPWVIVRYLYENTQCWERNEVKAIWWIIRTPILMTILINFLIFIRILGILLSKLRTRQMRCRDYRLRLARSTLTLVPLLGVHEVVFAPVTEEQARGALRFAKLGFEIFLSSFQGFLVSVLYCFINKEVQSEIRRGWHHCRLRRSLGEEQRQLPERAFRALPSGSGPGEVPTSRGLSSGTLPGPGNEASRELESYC

hGLP1R = target: T2, hGLP1R (Homo sapiens, UniProt P43220); experiment: hGLP1R CreLuc assay in 0.5% and 100% plasma (HEK-293 CRE-luciferase reporter cells); type: cell-based; conditions: HEK-293 reporter cells
T2 construct: expressed in transfected cells; host or cells: HEK-293 CRE-luciferase reporter cells
T2 sequence (P43220 24-463): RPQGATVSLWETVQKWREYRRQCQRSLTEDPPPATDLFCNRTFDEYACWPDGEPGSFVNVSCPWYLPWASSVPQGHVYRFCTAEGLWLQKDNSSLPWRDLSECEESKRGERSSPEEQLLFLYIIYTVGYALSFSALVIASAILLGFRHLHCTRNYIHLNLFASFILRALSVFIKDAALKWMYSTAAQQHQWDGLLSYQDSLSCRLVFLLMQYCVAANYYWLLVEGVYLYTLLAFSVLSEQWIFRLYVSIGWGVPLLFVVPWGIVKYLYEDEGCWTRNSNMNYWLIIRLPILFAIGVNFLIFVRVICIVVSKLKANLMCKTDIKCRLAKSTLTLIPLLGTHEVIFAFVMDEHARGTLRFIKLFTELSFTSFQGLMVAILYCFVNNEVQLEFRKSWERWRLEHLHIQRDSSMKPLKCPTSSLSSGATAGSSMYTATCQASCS

[1] = Solubility in 0.1 M phosphate buffer at pH 7; type: physicochemical; conditions: 0.1 M phosphate buffer at pH 7, 10 mg/mL final peptide concentration, shaking 2 hours at room temperature, peptides as TFA-salts; measured sample pH 6.5-7.0
hNPY2R = target: T3, hNPY2R (Homo sapiens, UniProt P49146); experiment: hNPY2R CreLuc assay in 0.5% and 100% plasma (HEK-293 CRE-luciferase reporter cells); type: cell-based; conditions: 100% human plasma, HEK-293 reporter cells, read-out: hNPY2R 100% hP
T3 construct: expressed in transfected cells; host or cells: HEK-293 CRE-luciferase reporter cells
T3 sequence (P49146 1-381): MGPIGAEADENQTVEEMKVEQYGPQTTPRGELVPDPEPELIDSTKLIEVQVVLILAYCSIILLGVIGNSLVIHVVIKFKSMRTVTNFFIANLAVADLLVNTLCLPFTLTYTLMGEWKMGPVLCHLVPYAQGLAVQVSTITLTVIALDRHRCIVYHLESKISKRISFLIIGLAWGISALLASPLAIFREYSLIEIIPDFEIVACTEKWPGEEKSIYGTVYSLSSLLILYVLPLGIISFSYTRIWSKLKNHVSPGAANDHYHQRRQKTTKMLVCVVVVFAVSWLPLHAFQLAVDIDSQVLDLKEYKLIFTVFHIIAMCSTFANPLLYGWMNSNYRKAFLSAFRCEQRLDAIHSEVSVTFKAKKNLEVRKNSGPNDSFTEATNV

[2] = 0.5% human plasma, read-out: hGLP1R 0.5% hP

SMILES | EC50 (hGIPR) | EC50 (hGLP1R; [2]) | solubility at 2 h [1] | EC50 (hNPY2R) | EC50 (hGLP1R; 100% human plasma, read-out: hGLP1R 100% hP)
CC[C@H](C)[C@H](NC(=O)[C@H](CC(C)C)NC(=O)[C@H](Cc1c[nH]cn1)NC(=O)[C@H](CCCNC(=N)N)NC(=O)[C@@H](NC(=O)[C@H](Cc1ccccc1)NC(=O)[C@H](C)NC(=O)C(C)(C)NC(=O)[C@H](CCC(N)=O)NC(=O)[C@H](C)NC(=O)[C@H](CCC(N)=O)NC(=O)[C@H](CCCCN)NC(=O)[C@H](CCC(=O)O)NC(=O)[C@H](CC(C)C)NC(=O)C(C)(C)NC(=O)[C@@H](NC(=O)[C@H](CO)NC(=O)[C@H](Cc1ccc(O)cc1)NC(=O)[C@H](CC(=O)O)NC(=O)[C@H](CO)NC(=O)[C@@H](NC(=O)[C@H](Cc1ccccc1)NC(=O)[C@@H](NC(=O)CNC(=O)[C@H](CCC(=O)O)NC(=O)C(C)(C)NC(=O)[C@@H](N)Cc1ccc(O)cc1)[C@@H](C)O)[C@@H](C)O)[C@@H](C)CC)C(C)C)C(=O)N[C@@H](CC(N)=O)C(=O)N[C@@H](CCCCNC(=O)[C@@H](N)CCCNC(=O)CC[C@H](NC(=O)CC[C@H](NC(=O)CC[C@H](NC(=O)CC[C@H](NC(=O)CC[C@H](NC(=O)CC[C@H](NC(=O)CCCCCCCCCCCCCCCCCCC(=O)O)C(=O)O)C(=O)O)C(=O)O)C(=O)O)C(=O)O)C(=O)O)C(=O)NC(C)(C)C(=O)N[C@H](C(=O)N[C@@H](CCCNC(=N)N)C(=O)N[C@@H](CCC(N)=O)C(=O)N[C@@H](CCCNC(=N)N)C(=O)N[C@@H](Cc1ccc(O)cc1)C(N)=O)[C@@H](C)O [Compound 97, Y-Aib-E-G-T-F-T-S-D-Y-S-I-Aib-L-E-K-Q-A-Q-Aib-A-F-V-R-H-L-I-N-K(1,3)-Aib-T-R-Q-R-Y-NH2.C20DA-gGlu-gGlu-gGlu-gGlu-gGlu-gGlu-dtOrn(1,2)] | 0.6 nM | 3.8 nM | 4700 µg/mL | 135 nM | 
CC[C@H](C)[C@H](NC(=O)[C@H](CC(C)C)NC(=O)[C@H](Cc1c[nH]cn1)NC(=O)[C@H](CCCNC(=N)N)NC(=O)[C@@H](NC(=O)[C@H](Cc1ccccc1)NC(=O)[C@H](C)NC(=O)C(C)(C)NC(=O)[C@H](CCC(=O)O)NC(=O)[C@H](C)NC(=O)[C@H](CCC(N)=O)NC(=O)[C@H](CCCCN)NC(=O)[C@H](CCC(=O)O)NC(=O)[C@H](CC(C)C)NC(=O)[C@](C)(CC(C)C)NC(=O)[C@@H](NC(=O)[C@H](CO)NC(=O)[C@H](Cc1ccc(O)cc1)NC(=O)[C@H](CC(=O)O)NC(=O)[C@H](CO)NC(=O)[C@@H](NC(=O)[C@H](Cc1ccccc1)NC(=O)[C@@H](NC(=O)CNC(=O)[C@H](CCC(=O)O)NC(=O)C(C)(C)NC(=O)[C@@H](N)Cc1ccc(O)cc1)[C@@H](C)O)[C@@H](C)O)[C@@H](C)CC)C(C)C)C(=O)N[C@@H](CC(N)=O)C(=O)N[C@@H](CCCCNC(=O)[C@@H](N)CCCCNC(=O)CC[C@H](NC(=O)CC[C@H](NC(=O)CC[C@H](NC(=O)CC[C@H](NC(=O)CC[C@H](NC(=O)CC[C@H](NC(=O)CCCCCCCCCCCCCCCCCCC(=O)O)C(=O)O)C(=O)O)C(=O)O)C(=O)O)C(=O)O)C(=O)O)C(=O)NC(C)(C)C(=O)N[C@H](C(=O)N[C@@H](CCCNC(=N)N)C(=O)N[C@@H](CCC(N)=O)C(=O)N[C@@H](CCCNC(=N)N)C(=O)N[C@@H](Cc1ccc(O)cc1)C(N)=O)[C@@H](C)O [Compound 103, Y-Aib-E-G-T-F-T-S-D-Y-S-I-aMeL-L-E-K-Q-A-E-Aib-A-F-V-R-H-L-I-N-K(1,3)-Aib-T-R-Q-R-Y-NH2.C20DA-gGlu-gGlu-gGlu-gGlu-gGlu-gGlu-eLys(1,2)] | 0.2 nM | 0.4 nM | 9700 µg/mL | 131 nM | 0.6 nM
